Data from patent publication US8664379B2, “Fused heterocyclic compounds as ion channel modulators” (Gilead Sciences, Inc., priority 2008, dated 2014).
Values joined by “and” are separate entries in the source; they are usually repeats but may differ in a detail not shown here. Identical values can stand only once.

Key:
[1] = target: wild-type human cardiac sodium channel, hNav1.5 (late sodium current) (Homo sapiens, UniProt Q14524); test: Late INa screening assay (PatchXpress whole cell patch clamp); assay type: cell-based; settings: HEK293, 10 μM test compound; HEK293 cells expressing hNav1.5; late INa generated with 10 μM Tefluthrin (some experiments 50 nM ATX II); read-out: Late INa % blk (10 μM test cmpd)
hERG potassium channel = target: T1, hERG potassium channel (Homo sapiens, UniProt Q12809); test: hERG screening assay (PatchXpress patch clamp); assay type: cell-based; settings: hERG expressed in CHO cells, peak current at -50 mV; for hERG Patch Clamp hERG % blk 1 μm: 1 μM test compound; for hERG Patch Clamp hERG % blk 10 μm: 10 μM test compound
T1 construct: expressed in transfected cells
Experimental: Compounds were screened to test their activity in blocking the hERG potassium channel. The hERG channel was heterologously expressed in a CHO (Chinese Hamster Ovary) cell line. Cells were maintained with standard tissue culture procedures and stable channel expression was maintained with 500 μg/ml G418 in the culture medium. Cells were harvested for testing on the PatchXpress automated patch clamp with Accumax (Innovative Cell Technologies, San Diego, Calif.) to isolate single cells.
The following solutions were used for electrophysiological recordings. The external solution contained: 2 mM CaCl2; 2 mM MgCl2; 4 mM KCl; 150 mM NaCl; 10 mM Glucose; 10 mM HEPES (pH 7.4 with 1M NaOH, osmolarity). The internal solution contained: 140 mM KCl, 10 mM MgCl2, 6 mM EGTA, 5 mM HEPES, 5 mM ATP (pH adjusted to 7.25 with KOH).
hERG channels are activated when the voltage is stepped to +20 mV from the −80 mV holding potential. During a 5 second step at +20 mV, the channels activated and then largely inactivated, so the currents were relatively small. Upon returning to −50 mV from +20 mV, hERG currents transiently became much larger as inactivation was rapidly removed and then the channel closed. The first step to −50 mV for 300 ms was used as a baseline for measuring the peak amplitude during the step to −50 mV after channel activation. The peak current at −50 mV was measured both under control conditions and after addition of compound.
All compounds were prepared as 10 mM DMSO stocks in glass vials. Stock solutions were mixed by vigorous vortexing and sonication for about 2 minutes at room temperature. For testing, compounds were diluted in glass vials using an intermediate dilution step in pure DMSO and then further diluted to working concentrations in external solution. Dilutions were prepared no longer than 20 minutes before use.
After achieving the whole-cell configuration, cells were monitored for 90 seconds to assess stability and washed with external solution for 66 seconds. The voltage protocol described above was then applied to the cells every 12 seconds and throughout the whole procedure. Only cells with stable recording parameters and meeting specified health criteria were allowed to enter the compound addition procedure.
External solution containing 0.1% DMSO (vehicle) was applied to the cells first to establish the control peak current amplitude. After allowing the current to stabilize for 3 to 5 minutes, 1 μM and then 10 μM test compounds were applied. Each compound concentration was added 4 times and cells were kept in test solution until the effect of the compound reached steady state or for a maximum of 12 minutes. After addition of test compound, a positive control (1 μM Cisapride) was added—it must block >95% of the current for the experiment to be considered valid. Washout in the external solution compartment was performed until the recovery of the current reached steady state. Data were analyzed using DataXpress, Clampfit (Molecular Devices, Inc., Sunnyvale) and Origin 7 (Originlab Corp.)

T1 sequence (Q12809 whole entry): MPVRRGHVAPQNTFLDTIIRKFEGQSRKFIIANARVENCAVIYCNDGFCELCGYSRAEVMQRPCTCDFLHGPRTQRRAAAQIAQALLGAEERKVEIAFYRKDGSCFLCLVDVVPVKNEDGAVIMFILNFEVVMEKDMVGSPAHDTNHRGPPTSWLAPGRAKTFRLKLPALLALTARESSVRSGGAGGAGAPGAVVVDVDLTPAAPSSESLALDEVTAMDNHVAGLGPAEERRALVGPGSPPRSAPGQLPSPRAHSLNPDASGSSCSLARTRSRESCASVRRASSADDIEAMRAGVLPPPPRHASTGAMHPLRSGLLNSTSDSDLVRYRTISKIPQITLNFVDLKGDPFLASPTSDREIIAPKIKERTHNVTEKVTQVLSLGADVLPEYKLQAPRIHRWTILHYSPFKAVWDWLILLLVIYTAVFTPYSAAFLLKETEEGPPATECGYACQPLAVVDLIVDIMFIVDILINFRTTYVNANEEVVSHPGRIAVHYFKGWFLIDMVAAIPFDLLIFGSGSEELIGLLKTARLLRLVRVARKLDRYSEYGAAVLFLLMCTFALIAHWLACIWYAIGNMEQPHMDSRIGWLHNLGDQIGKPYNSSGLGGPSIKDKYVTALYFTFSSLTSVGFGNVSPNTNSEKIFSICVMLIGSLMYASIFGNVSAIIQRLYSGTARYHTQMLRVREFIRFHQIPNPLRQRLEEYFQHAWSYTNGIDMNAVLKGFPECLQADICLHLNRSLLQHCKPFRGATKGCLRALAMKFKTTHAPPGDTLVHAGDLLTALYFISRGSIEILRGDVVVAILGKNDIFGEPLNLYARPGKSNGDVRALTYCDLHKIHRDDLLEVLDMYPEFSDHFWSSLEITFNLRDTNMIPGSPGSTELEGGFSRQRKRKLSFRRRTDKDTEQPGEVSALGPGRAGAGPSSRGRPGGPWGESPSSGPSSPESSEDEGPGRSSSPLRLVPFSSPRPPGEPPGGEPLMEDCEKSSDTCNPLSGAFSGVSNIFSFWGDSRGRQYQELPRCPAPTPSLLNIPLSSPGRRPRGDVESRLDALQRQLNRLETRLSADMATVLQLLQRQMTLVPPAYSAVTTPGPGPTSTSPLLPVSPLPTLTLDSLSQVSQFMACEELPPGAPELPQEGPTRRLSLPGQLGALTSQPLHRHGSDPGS
Sequence of wild-type human cardiac sodium channel, hNav1.5 (late sodium current) (Q14524 whole entry): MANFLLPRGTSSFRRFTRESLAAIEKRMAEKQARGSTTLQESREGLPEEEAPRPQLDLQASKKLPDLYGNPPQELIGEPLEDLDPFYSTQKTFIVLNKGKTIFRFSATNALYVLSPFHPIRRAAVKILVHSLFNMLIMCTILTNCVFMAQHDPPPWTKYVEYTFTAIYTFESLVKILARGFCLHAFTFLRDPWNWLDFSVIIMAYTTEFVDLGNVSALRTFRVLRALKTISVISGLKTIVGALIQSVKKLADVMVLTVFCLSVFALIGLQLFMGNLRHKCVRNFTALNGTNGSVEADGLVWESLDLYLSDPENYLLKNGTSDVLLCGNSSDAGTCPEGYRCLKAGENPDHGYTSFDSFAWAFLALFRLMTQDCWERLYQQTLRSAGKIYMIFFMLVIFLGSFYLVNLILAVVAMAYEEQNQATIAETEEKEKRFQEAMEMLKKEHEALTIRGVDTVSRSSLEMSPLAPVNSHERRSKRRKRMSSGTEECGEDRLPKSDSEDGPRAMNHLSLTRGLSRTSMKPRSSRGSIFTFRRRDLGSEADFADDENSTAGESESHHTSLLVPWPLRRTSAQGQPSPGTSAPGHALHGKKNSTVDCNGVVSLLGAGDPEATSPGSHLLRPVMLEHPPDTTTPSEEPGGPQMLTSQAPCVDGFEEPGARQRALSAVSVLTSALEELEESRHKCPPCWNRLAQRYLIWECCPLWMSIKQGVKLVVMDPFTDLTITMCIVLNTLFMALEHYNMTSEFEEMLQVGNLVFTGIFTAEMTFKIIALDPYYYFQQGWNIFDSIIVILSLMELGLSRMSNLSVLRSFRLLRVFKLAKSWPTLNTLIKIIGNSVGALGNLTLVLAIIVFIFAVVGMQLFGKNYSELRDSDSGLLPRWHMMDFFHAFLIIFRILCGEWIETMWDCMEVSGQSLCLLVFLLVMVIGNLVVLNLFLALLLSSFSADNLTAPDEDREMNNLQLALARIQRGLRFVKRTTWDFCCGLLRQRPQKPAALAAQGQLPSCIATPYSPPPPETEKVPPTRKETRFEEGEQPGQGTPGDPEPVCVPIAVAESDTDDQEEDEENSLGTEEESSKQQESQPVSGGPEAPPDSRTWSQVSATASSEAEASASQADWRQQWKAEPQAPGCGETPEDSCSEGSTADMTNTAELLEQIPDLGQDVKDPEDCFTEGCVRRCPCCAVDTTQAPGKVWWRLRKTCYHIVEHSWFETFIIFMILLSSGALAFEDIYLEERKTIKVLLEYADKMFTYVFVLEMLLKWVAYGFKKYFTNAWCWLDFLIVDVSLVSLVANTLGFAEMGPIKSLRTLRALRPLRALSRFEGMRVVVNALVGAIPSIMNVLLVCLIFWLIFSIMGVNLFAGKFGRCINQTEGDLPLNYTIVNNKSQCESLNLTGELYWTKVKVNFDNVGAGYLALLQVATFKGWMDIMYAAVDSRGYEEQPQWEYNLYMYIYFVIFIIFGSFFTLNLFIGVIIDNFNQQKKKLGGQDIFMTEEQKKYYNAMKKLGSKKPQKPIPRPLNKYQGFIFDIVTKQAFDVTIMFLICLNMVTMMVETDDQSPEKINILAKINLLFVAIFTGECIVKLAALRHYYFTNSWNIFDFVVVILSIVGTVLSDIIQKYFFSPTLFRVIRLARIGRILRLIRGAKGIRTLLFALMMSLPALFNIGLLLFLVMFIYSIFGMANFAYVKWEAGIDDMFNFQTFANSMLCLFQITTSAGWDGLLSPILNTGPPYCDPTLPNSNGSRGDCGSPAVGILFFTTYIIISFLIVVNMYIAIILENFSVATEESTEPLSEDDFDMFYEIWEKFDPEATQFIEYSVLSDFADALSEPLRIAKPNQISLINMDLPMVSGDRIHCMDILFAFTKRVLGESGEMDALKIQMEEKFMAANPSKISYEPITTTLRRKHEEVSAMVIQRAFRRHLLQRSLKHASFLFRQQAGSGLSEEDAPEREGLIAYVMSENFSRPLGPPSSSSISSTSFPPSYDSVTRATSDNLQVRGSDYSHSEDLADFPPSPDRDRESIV

Row | SMILES | inhibition at 10 µM [1] [%] | hERG Patch Clamp hERG % blk 1 μm (hERG potassium channel) | hERG Patch Clamp hERG % blk 10 μm (hERG potassium channel)
1 | O=C(O)CN1C(=O)CCc2cc(-c3ccc(Cl)c(Cl)c3)ccc21 [Compound 69, [6-(3,4-dichlorophenyl)-2-oxo-3,4-dihydroquinolin-1(2H)-yl]acetic acid] | 16 | 10% | 10%
2 | O=C(O)CN1C(=O)CCc2cc(-c3ccc(Oc4ccccc4)cc3)ccc21 [Compound 70, [2-oxo-6-(4-phenoxyphenyl)-3,4-dihydroquinolin-1(2H)-yl]acetic acid] | 17 | 10% | 10%
3 | CC(O)CN1C(=O)CCc2cc(-c3ccc(OC(F)(F)F)cc3)ccc21 (stereo not drawn) [Compound 89, 1-(2-hydroxypropyl)-6-[4-(trifluoromethoxy)phenyl]-3,4-dihydroquinolin-2(1H)-one] | 42 | 24% and 16% | 67% and 72%
